Reference: PubChem BioAssay (NCI)
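A five-concentration, 48-hour dose response in 96-well plates underlies each endpoint, interpolated linearly between surrounding concentrations. TGI denotes the concentration required for complete inhibition of growth.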

Key:
Assay in all cases: NCI tumour cell line growth inhibition, 48 h
LXFL 529 NSCLC = system: LXFL 529 NSCLC
XF 498 CNS = system: XF 498 CNS
DMS 114 small cell lung = system: DMS 114 small cell lung
P388 leukemia = system: P388 leukemia
DLD-1 colon = system: DLD-1 colon
HOP-18 NSCLC = system: HOP-18 NSCLC
SN12K1 renal = system: SN12K1 renal
RXF-631 renal = system: RXF-631 renal
P388/ADR leukemia = system: P388/ADR leukemia

Compound: OCc1ccc(C2CC(c3ccco3)=NN2c2ccccc2)o1 (centres undefined)
- TGI (LXFL 529 NSCLC): > 100 µM
- TGI (XF 498 CNS): > 100 µM
- TGI (DMS 114 small cell lung): > 100 µM

Compound: CC(=O)O[C@]12CCCCCC1C1(O)C(O)CCCC[C@H]12 (some centres undefined)
- TGI (LXFL 529 NSCLC): > 100 µM
- TGI (XF 498 CNS): > 100 µM
- TGI (DMS 114 small cell lung): > 100 µM

Compound: Nc1ccn(C2OC(CO)C(O)C2O)c(=O)c1 (centres undefined)
- TGI (P388 leukemia): > 625 µM
- TGI (DLD-1 colon): > 625 µM
- TGI (HOP-18 NSCLC): > 625 µM
- TGI (SN12K1 renal): > 625 µM
- TGI (XF 498 CNS): < 0.0625 µM

Compound: COc1c(C(C)C)cc2c3c1OC(=O)[C@@]31CCCC(C)(C)C1CC2 (some centres undefined)
- TGI (LXFL 529 NSCLC): 49.8 µM
- TGI (DLD-1 colon): > 100 µM

Compound: O=c1c(C(c2ccc(Cl)cc2)c2c(O)c3ccccc3n(-c3ccccc3)c2=O)c(O)c2ccccc2n1-c1ccccc1
- TGI (LXFL 529 NSCLC): > 100 µM
- TGI (RXF-631 renal): > 100 µM
- TGI (DLD-1 colon): > 100 µM
- TGI (HOP-18 NSCLC): > 100 µM
- TGI (XF 498 CNS): 69.4 µM
- TGI (DMS 114 small cell lung): > 100 µM

Compound: CC(=O)[C@@]1(O)CC[C@H]2[C@@H]3C[C@H](C)C4=CC(=O)C=C[C@]4(C)[C@@]3(F)[C@@H](O)C[C@@]21C
- TGI (LXFL 529 NSCLC): > 100 µM
- TGI (RXF-631 renal): > 100 µM
- TGI (DLD-1 colon): > 100 µM
- TGI (XF 498 CNS): > 100 µM
- TGI (DMS 114 small cell lung): > 100 µM

Compound: COc1ccc(C2COc3cc(O)c(O)cc3C2)cc1 (centres undefined)
- TGI (P388 leukemia): 18.7 µM
- TGI (DLD-1 colon): 25.3 µM
- TGI (HOP-18 NSCLC): 110 µM
- TGI (SN12K1 renal): 98.9 µM
- TGI (P388/ADR leukemia): 8.53 µM
